Test results reported in ChEMBL document CHEMBL3991601, “The target landscape of clinical kinase drugs” (Science, 2017).
Activity calls are given as the source filed them. Cut-off read from the data, not from the text of the source, for most assays here: actives have a measured Kd and inactives only a lower limit.

How the values were obtained:
Activin receptor type-1B = target: T1, Activin receptor type-1B (Homo sapiens, UniProt P36896)
T1 sequence (P36896 whole entry): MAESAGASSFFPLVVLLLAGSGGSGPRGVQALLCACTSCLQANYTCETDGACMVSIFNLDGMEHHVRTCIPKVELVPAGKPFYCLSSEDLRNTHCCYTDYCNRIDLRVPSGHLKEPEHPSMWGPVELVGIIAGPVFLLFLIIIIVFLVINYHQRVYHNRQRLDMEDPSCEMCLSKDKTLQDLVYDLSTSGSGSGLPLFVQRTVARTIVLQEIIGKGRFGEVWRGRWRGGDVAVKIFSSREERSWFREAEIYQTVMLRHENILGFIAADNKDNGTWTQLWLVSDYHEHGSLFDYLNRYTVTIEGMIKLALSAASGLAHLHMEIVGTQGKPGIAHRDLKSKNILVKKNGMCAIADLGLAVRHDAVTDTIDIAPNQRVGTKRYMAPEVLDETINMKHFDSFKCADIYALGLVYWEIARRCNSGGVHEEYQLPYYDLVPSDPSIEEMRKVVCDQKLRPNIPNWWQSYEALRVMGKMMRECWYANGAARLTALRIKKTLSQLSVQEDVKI

[1] = target: Adenylate kinase 2, mitochondrial (Homo sapiens, UniProt P54819)
[2] = target: Cyclin-dependent kinase 13 (Homo sapiens, UniProt Q14004)
[3] = target: T2, Mitogen-activated protein kinase kinase kinase 2 (Homo sapiens, UniProt Q9Y2U5)
T2 sequence (Q9Y2U5 whole entry): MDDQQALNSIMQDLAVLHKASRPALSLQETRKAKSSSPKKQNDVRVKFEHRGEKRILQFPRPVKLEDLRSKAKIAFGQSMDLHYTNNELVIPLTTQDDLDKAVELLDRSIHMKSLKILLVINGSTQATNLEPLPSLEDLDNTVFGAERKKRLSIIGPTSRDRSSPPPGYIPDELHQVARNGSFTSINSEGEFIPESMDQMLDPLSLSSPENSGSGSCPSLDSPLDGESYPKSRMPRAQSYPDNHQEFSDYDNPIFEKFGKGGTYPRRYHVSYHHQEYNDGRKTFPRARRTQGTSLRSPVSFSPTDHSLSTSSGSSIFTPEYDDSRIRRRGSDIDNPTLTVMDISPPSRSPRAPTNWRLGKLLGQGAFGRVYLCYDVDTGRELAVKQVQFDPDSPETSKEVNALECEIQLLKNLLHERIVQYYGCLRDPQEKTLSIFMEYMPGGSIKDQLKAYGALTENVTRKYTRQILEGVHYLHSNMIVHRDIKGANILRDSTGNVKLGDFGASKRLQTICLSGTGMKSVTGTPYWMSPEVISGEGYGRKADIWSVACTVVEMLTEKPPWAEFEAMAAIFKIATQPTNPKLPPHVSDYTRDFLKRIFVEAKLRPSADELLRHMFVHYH

[4] = target: T3, Serine/threonine-protein kinase Nek1 (Homo sapiens, UniProt Q96PY6)
T3 sequence (Q96PY6 whole entry): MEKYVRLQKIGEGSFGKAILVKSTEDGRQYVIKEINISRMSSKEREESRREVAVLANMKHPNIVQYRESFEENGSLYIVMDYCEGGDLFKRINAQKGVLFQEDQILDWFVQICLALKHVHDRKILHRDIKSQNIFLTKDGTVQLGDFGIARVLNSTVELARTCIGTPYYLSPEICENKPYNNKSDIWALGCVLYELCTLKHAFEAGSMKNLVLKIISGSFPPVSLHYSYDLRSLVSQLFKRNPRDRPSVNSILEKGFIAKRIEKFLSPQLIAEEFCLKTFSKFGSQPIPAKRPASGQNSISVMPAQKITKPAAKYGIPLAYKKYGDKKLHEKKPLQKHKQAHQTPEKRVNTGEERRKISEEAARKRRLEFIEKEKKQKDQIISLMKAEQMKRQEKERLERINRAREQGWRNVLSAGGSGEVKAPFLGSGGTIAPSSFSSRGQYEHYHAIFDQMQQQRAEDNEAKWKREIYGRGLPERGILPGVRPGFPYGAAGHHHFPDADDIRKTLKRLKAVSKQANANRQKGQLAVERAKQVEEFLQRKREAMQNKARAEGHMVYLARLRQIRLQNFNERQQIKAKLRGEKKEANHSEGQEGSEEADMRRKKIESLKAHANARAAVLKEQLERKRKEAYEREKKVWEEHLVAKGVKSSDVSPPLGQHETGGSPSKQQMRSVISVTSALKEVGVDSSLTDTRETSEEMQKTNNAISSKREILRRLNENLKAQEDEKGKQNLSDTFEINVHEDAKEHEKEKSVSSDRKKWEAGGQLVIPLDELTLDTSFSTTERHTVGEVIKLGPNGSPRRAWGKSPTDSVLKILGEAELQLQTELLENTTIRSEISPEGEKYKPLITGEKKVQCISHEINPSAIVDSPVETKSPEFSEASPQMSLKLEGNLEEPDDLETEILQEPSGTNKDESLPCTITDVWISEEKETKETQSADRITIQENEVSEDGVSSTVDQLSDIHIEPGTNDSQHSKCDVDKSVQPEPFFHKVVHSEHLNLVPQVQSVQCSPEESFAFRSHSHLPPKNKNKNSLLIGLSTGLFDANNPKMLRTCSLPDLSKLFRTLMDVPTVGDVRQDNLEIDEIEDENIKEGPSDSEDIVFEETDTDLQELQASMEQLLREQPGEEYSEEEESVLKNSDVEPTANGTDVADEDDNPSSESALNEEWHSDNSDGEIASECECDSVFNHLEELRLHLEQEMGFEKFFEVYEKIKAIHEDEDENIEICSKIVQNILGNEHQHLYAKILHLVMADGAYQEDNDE

[5] = target: T4, Uncharacterized protein FLJ45252 (Homo sapiens, UniProt Q6ZSR9); settings: read-out: Kd apparent; k-562, colo 205, sk-n-be(2) and mv-4-11
T4 sequence (Q6ZSR9 whole entry): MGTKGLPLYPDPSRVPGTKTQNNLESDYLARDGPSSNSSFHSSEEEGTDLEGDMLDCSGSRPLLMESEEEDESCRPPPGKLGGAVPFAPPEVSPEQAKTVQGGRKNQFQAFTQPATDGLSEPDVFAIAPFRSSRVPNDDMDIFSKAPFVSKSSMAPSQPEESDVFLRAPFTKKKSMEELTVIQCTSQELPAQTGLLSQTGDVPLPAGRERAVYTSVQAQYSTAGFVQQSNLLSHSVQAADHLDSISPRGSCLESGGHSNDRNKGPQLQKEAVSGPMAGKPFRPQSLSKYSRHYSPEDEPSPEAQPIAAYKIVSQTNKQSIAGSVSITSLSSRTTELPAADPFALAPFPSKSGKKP
Note: in the data inactive means no Kd found up to 30 µM.

Chain of Cyclin-dependent kinase 13 (Q14004 whole entry): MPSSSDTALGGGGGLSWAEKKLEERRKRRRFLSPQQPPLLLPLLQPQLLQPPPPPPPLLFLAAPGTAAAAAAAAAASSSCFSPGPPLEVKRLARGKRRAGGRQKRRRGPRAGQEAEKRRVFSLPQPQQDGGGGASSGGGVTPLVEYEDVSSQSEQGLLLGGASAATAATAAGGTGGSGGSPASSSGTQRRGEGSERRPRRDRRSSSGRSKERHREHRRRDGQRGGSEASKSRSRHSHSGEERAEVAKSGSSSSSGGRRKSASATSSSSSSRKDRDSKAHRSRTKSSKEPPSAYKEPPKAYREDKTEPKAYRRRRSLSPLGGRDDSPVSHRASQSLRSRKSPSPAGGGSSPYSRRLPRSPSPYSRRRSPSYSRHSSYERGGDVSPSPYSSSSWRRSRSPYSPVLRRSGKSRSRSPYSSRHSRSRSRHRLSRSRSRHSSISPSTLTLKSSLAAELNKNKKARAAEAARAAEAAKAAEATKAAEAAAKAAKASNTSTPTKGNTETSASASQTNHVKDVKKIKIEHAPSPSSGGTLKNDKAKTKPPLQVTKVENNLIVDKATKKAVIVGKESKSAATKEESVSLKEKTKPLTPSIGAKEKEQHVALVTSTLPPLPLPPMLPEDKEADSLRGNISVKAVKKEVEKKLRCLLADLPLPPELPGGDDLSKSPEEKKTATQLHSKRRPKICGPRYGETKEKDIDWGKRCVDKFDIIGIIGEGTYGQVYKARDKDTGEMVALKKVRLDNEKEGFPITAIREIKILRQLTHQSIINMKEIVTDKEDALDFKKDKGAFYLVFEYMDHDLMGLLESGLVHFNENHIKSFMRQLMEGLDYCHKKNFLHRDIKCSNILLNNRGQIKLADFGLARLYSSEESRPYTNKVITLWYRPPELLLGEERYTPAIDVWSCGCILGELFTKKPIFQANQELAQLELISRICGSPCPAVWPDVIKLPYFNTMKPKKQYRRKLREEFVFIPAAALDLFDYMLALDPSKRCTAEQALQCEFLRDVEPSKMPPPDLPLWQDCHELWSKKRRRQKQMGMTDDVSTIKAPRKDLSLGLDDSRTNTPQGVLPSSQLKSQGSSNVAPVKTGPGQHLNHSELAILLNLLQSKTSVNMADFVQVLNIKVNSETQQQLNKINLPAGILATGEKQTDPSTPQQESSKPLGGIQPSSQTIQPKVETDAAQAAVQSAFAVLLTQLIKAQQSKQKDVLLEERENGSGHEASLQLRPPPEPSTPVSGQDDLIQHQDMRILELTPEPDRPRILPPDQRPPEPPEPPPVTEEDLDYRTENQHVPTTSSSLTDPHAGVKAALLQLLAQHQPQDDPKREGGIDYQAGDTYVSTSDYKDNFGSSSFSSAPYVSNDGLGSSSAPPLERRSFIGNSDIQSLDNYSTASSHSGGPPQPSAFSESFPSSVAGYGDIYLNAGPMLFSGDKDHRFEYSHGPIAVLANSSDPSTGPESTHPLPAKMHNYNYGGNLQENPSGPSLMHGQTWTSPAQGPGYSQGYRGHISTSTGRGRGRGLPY

| Compound | Kd (Activin receptor type-1B) | Kd [1] | Kd [2] | Kd [3] | Kd [4] | Kd [5] |
| --- | --- | --- | --- | --- | --- | --- |
| CC[C@@](C)(Nc1ccnc(-c2c[nH]c3ncccc23)n1)C(=O)NCC(F)(F)F [DECERNOTINIB] | > 30 µM (inactive) | > 30 µM (inactive) | > 30 µM (inactive) | 4.45 µM (active) | > 30 µM (inactive) | 2.64 µM (active) |
| Cc1cc(-c2cc(OC(=O)c3ccccc3)ccc2Cl)cc2nnc(Nc3ccc(OCCN4CCCC4)cc3)nc12 [TG100-801] | > 30 µM (inactive) | > 30 µM (inactive) | > 30 µM (inactive) | > 30 µM (inactive) | > 30 µM (inactive) | > 30 µM (inactive) |
| O=C(NOC[C@H](O)CO)c1ccc(F)c(F)c1Nc1ccc(I)cc1F [MIRDAMETINIB] | > 30 µM (inactive) | > 30 µM (inactive) | > 30 µM (inactive) | > 30 µM (inactive) | > 30 µM (inactive) | > 30 µM (inactive) |
| CC(C)(O)CC(=O)NCCn1ccc2ncnc(Nc3ccc(Oc4cccc(C(F)(F)F)c4)c(Cl)c3)c21 [TAK-285] | > 30 µM (inactive) | > 30 µM (inactive) | > 30 µM (inactive) | > 30 µM (inactive) | > 30 µM (inactive) | > 30 µM (inactive) |
| Cc1cc(C(=O)Nc2cc(Oc3ccc4nc(NC(=O)C5CC5)cn4n3)ccc2C)n(C)n1 [TAK-593] | > 30 µM (inactive) | > 30 µM (inactive) | > 30 µM (inactive) | > 30 µM (inactive) | 0.365 µM (active) | 0.869 µM (active) |
| NC[C@@](O)(c1ccc(Cl)cc1)c1ccc(-c2cn[nH]c2)cc1 [AT-13148] | > 30 µM (inactive) | > 30 µM (inactive) | > 30 µM (inactive) | > 30 µM (inactive) | > 30 µM (inactive) | > 30 µM (inactive) |
| Cc1c(NC(=O)OC[C@@H]2COCCN2)cn2ncnc(Nc3ccc4c(cnn4Cc4cccc(F)c4)c3)c12 [AC-480] | > 30 µM (inactive) | > 30 µM (inactive) | > 30 µM (inactive) | > 30 µM (inactive) | > 30 µM (inactive) | > 30 µM (inactive) |
| COc1cc(Nc2ncc(F)c(Nc3ccc4c(n3)N(COP(=O)(O)O)C(=O)C(C)(C)O4)n2)cc(OC)c1OC [FOSTAMATINIB] | > 30 µM (inactive) | > 30 µM (inactive) | > 30 µM (inactive) | > 30 µM (inactive) | > 30 µM (inactive) | > 30 µM (inactive) |
| C[C@@H]1COC(Nc2ccc3ncnc(Nc4ccc(OCc5nccs5)c(Cl)c4)c3c2)=N1 [VARLITINIB] | > 30 µM (inactive) | > 30 µM (inactive) | > 30 µM (inactive) | > 30 µM (inactive) | > 30 µM (inactive) | > 30 µM (inactive) |
| COCCN1CCN(Cc2ccc(-c3n[nH]c4c3C(=O)c3c(NC(=O)NN5CCOCC5)cccc3-4)cc2)CC1 [RGB-286638] | > 30 µM (inactive) | > 30 µM (inactive) | 1.01 µM (active) | > 30 µM (inactive) | > 30 µM (inactive) | 0.022 µM (active) |
| CNC(=O)c1ccc(Nc2ncc(C(F)(F)F)c(NCc3nccnc3N(C)S(C)(=O)=O)n2)cc1 [DEFACTINIB] | > 30 µM (inactive) | > 30 µM (inactive) | 3.11 µM (active) | > 30 µM (inactive) | > 30 µM (inactive) | > 30 µM (inactive) |
| C=CC(=O)Nc1cccc(Nc2nc(Nc3ccc(N4CCN(C(C)=O)CC4)cc3OC)ncc2C(F)(F)F)c1 [ROCILETINIB] | > 30 µM (inactive) | > 30 µM (inactive) | > 30 µM (inactive) | > 30 µM (inactive) | > 30 µM (inactive) | > 30 µM (inactive) |
| Cc1ccc(C(=O)Nc2ccc(Oc3cc4cnn(C)c4cc3-c3cn[nH]c3)c(F)c2)c(=O)n1-c1ccc(F)cc1 [MERESTINIB] | > 30 µM (inactive) | > 30 µM (inactive) | > 30 µM (inactive) | > 30 µM (inactive) | > 30 µM (inactive) | > 30 µM (inactive) |
| O=C(O)c1ccc2c(c1)nc(Nc1cccc(Cl)c1)c1ccncc12 [SILMITASERTIB] | > 30 µM (inactive) | > 30 µM (inactive) | > 30 µM (inactive) | > 30 µM (inactive) | > 30 µM (inactive) | > 30 µM (inactive) |
| Cc1c(Cn2c(C)nc3c(C(=O)O)cc(N4CCOCC4)cc32)cccc1C(F)(F)F [GSK-2636771] | > 30 µM (inactive) | > 30 µM (inactive) | > 30 µM (inactive) | > 30 µM (inactive) | > 30 µM (inactive) | > 30 µM (inactive) |
| Cn1cc(-c2[nH]c3cc(NC(=O)[C@H](N)C4CCCCC4)cc4c3c2C=NNC4=O)cn1 | > 30 µM (inactive) | > 30 µM (inactive) | > 30 µM (inactive) | > 30 µM (inactive) | > 30 µM (inactive) | 0.002 µM (active) |
| NC(=O)c1ccc(N(C(N)=O)c2c(F)cccc2F)nc1-c1ccc(F)cc1F [VX-702] | > 30 µM (inactive) | > 30 µM (inactive) | > 30 µM (inactive) | > 30 µM (inactive) | > 30 µM (inactive) | > 30 µM (inactive) |
| COc1cc2ncnc(Nc3ccc(F)c(Cl)c3)c2cc1NC(=O)/C=C/CN1CCCCC1 [DACOMITINIB ANHYDROUS] | > 30 µM (inactive) | > 30 µM (inactive) | > 30 µM (inactive) | > 30 µM (inactive) | > 30 µM (inactive) | > 30 µM (inactive) |
| S=C(NCc1ccc2c(c1)OCO2)N1CCN(c2ncnc3c2oc2ccccc23)CC1 [AMUVATINIB] | > 30 µM (inactive) | > 30 µM (inactive) | > 30 µM (inactive) | > 30 µM (inactive) | > 30 µM (inactive) | > 30 µM (inactive) |
